Source: BigSolDB 2.1

CC(=O)Nc1ccc(OC(=O)c2ccccc2OC(C)=O)cc1
solubility (mole fraction)
Details	278.15 K	283.15 K	288.15 K	293.15 K	298.15 K	303.15 K	308.15 K	313.15 K	318.15 K
in acetone	0.00215	0.00268	0.00353	0.00414	0.0052	0.00593	0.00792	0.0098	0.0123
in acetonitrile	0.00129	0.00153	0.00192	0.00235	0.00275	0.00378	0.00452	0.00575	0.00674
in ethanol	0.000242	0.000364	0.000497	0.000601	0.000717	0.000987	0.00125	0.00155	0.002
in ethyl acetate	0.000904	0.00109	0.00115	0.00147	0.00179	0.00216	0.00268	0.00325	0.00391
in ethyl formate	0.000965	0.00111	0.00138	0.00165	0.00193	0.00227	0.00299	0.00394	0.00449
in isobutanol	0.000204	0.000272	0.000344	0.000485	0.000587	0.000739	0.00107	0.00131	0.00161
in isopropanol	0.000153	0.000216	0.000261	0.000314	0.000481	0.000593	0.000833	0.00106	0.00137
in isopropyl acetate	0.000329	0.000423	0.00056	0.000886	0.00106	0.00145	0.00189	0.00241	0.00314
in methanol	0.000427	0.000575	0.000718	0.000908	0.001	0.00129	0.00171	0.0021	0.00271
in methyl acetate	0.000971	0.00121	0.00155	0.00183	0.0023	0.00267	0.0034	0.00406	0.00481
in n-butanol	0.000302	0.000407	0.000517	0.000643	0.000764	0.000939	0.00127	0.00143	0.00174
in n-propanol	0.000181	0.000268	0.000361	0.000561	0.000723	0.000994	0.0013	0.00166	0.00222
